Assay results: US10597388B2, “Pyridazinone herbicides” (FMC CORPORATION, priority 2014, dated 2020)

What was measured:
Format in all cases: in vivo
[1] = tested on: corn (Zea mays); experiment: Test A greenhouse herbicide test, pre- and postemergence; details: Postemergence; for Plant response rating, Corn: 125 g ai/ha; for Corn plant response rating: 500 g ai/ha, 0 to 100 scale, 0 is no effect, 100 is complete control
Procedure, shortened: (§1)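 Seeds in loam–sand blend received a preemergence directed soil spray; plants at 2–10 cm, one- to two-leaf stage, received postemergence sprays. Compounds in a non-phytotoxic solvent with surfactant. After about 10 d in a greenhouse, injury rated visually versus untreated controls on a 0–100 scale (100 = complete control).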

[2] = tested on: foxtail, giant (giant foxtail, Setaria faberii); experiment: as above
Procedure, shortened: as §1

[3] = tested on: kochia (Kochia scoparia); experiment: as above
Procedure, shortened: as §1

[4] = tested on: pigweed (Amaranthus retroflexus); experiment: as above
Procedure, shortened: as §1

[5] = tested on: ragweed (common ragweed, Ambrosia elatior); experiment: as above
Procedure, shortened: as §1

[6] = tested on: ryegrass, Italian (Italian ryegrass, Lolium multiflorum); experiment: as above
Procedure, shortened: as §1

[7] = tested on: wheat (Triticum aestivum); experiment: as above; details: Postemergence; for Plant response rating, Wheat: 125 g ai/ha, 0 to 100 scale where 0 is no effect and 100 is complete control; for Wheat plant response rating: 500 g ai/ha, 0 to 100 scale, 0 is no effect, 100 is complete control
Procedure, shortened: as §1

[8] = tested on: galium (catchweed bedstraw, Galium aparine); experiment: Test C greenhouse herbicide test, pre- and postemergence
Procedure, shortened: (§2)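 Pre- and postemergence greenhouse screen; values are visual control ratings, 0 meaning no effect and 100 complete kill, assigned relative to untreated plants after 13 to 15 d.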

[9] = tested on: nutsedge, yellow (yellow nutsedge, Cyperus esculentus); experiment: as above
Procedure, shortened: as §2

[10] = tested on: oilseed rape (Brassica napus); experiment: as above
Procedure, shortened: as §2

[11] = tested on: velvetleaf (Abutilon theophrasti); experiment: as above
Procedure, shortened: as §2

[12] = visual rating after approx. 10 d, 0 to 100 scale (0 no effect, 100 complete control)
[13] = Postemergence, 125 g ai/ha, visual rating after approx. 10 d, 0 to 100 scale (0 no effect, 100 complete control)
[14] = Postemergence, 500 g ai/ha, 0 to 100 scale, 0 is no effect, 100 is complete control
[15] = Preemergence, 125 g ai/ha, 0 to 100 scale where 0 is no effect and 100 is complete control
[16] = Preemergence, 500 g ai/ha, 0 to 100 scale, 0 no effect, 100 complete control
[17] = Postemergence, 125 g ai/ha, 0 to 100 scale where 0 is no effect and 100 is complete control
[18] = Postemergence, 31 g ai/ha, 0 to 100 scale (0 no effect, 100 complete control)
[19] = Postemergence, 125 g ai/ha, scale 0 to 100, 0 is no effect, 100 is complete control
[20] = Postemergence, 250 g ai/ha, scale 0 to 100, 0 no effect, 100 complete control, 13 to 15 d
[21] = Preemergence, 31 g ai/ha, scale 0 to 100, 0 is no effect, 100 is complete control
[22] = Preemergence, 62 g ai/ha, scale 0 to 100, 0 is no effect, 100 is complete control
[23] = Preemergence, 125 g ai/ha, scale 0 to 100, 0 is no effect, 100 is complete control
[24] = Preemergence, 250 g ai/ha, scale 0 to 100 (0 no effect, 100 complete control)
[25] = postemergence, 62 g ai/ha, scale 0 to 100, 0 no effect, 100 complete control
[26] = Postemergence, 16 g ai/ha, scale 0 to 100 (0 no effect, 100 complete control)

COc1nn(C)c(=O)c(-c2c(C)ccc3ccccc23)c1OC(=O)OC(C)C [Compound 36]
Plant response rating, Corn [1, 12]: 20 | Corn plant response rating [1]: 40 | Plant response rating, Foxtail, Giant [2, 13]: 80 | Foxtail, Giant plant response rating [2, 14]: 90 | Foxtail, Giant plant response rating [2, 15]: 80 | Plant response rating, Foxtail, Giant [2, 16]: 90 | Plant response rating, Kochia [3, 13]: 90 | Kochia plant response rating [3, 14]: 100 | Kochia plant response rating [3, 15]: 10 | Plant response rating, Kochia [3, 16]: 80 | Plant response rating, Pigweed [4, 13]: 90 | Pigweed plant response rating [4, 14]: 90 | Pigweed plant response rating [4, 15]: 100 | Plant response rating, Pigweed [4, 16]: 100 | Plant response rating, Ragweed [5, 13]: 90 | Ragweed plant response rating [5, 14]: 90 | Ragweed plant response rating [5, 15]: 80 | Plant response rating, Ragweed [5, 16]: 90 | Plant response rating, Ryegrass, Italian [6, 17]: 70 | Ryegrass, Italian plant response rating [6, 14]: 80 | Ryegrass, Italian plant response rating [6, 15]: 70 | Plant response rating, Ryegrass, Italian [6, 16]: 70 | Plant response rating, Wheat [7]: 20 | Wheat plant response rating [7]: 30 | Galium plant response rating [8, 18]: 90 | Plant response rating, Galium [8, 19]: 95 | Plant response rating, Galium [8, 20]: 95 | Plant response rating, Galium [8, 21]: 100 | Plant response rating, Galium [8, 22]: 100 | Plant response rating, Galium [8, 23]: 100 | Galium plant response rating [8, 24]: 100 | Galium plant response rating [8, 25]: 95 | Nutsedge, Yellow plant response rating [9, 18]: 20 | Plant response rating, Nutsedge, Yellow [9, 19]: 55 | Plant response rating, Nutsedge, Yellow [9, 20]: 65 | Plant response rating, Nutsedge, Yellow [9, 21]: 10 | Plant response rating, Nutsedge, Yellow [9, 22]: 20 | Plant response rating, Nutsedge, Yellow [9, 23]: 20 | Nutsedge, Yellow plant response rating [9, 24]: 65 | Nutsedge, Yellow plant response rating [9, 25]: 40 | Oilseed Rape plant response rating [10, 18]: 40 | Plant response rating, Oilseed Rape [10, 19]: 50 | Plant response rating, Oilseed Rape [10, 20]: 90 | Plant response rating, Oilseed Rape [10, 21]: 50 | Plant response rating, Oilseed Rape [10, 22]: 60 | Plant response rating, Oilseed Rape [10, 23]: 60 | Oilseed Rape plant response rating [10, 24]: 95 | Oilseed Rape plant response rating [10, 25]: 40 | Velvetleaf plant response rating [11, 18]: 65 | Plant response rating, Velvetleaf [11, 19]: 95 | Plant response rating, Velvetleaf [11, 20]: 95 | Plant response rating, Velvetleaf [11, 21]: 55 | Plant response rating, Velvetleaf [11, 22]: 80 | Plant response rating, Velvetleaf [11, 23]: 85 | Velvetleaf plant response rating [11, 24]: 90 | Velvetleaf plant response rating [11, 25]: 85

CCOC(=O)Oc1c(C)nn(C)c(=O)c1-c1c(CC)ccc2ccccc12 [Compound 37]
Plant response rating, Corn [1, 12]: 0 | Corn plant response rating [1]: 40 | Plant response rating, Foxtail, Giant [2, 13]: 80 | Foxtail, Giant plant response rating [2, 14]: 90 | Foxtail, Giant plant response rating [2, 15]: 70 | Plant response rating, Foxtail, Giant [2, 16]: 90 | Plant response rating, Kochia [3, 13]: 60 | Kochia plant response rating [3, 14]: 90 | Kochia plant response rating [3, 15]: 30 | Plant response rating, Kochia [3, 16]: 80 | Plant response rating, Pigweed [4, 13]: 100 | Pigweed plant response rating [4, 14]: 100 | Pigweed plant response rating [4, 15]: 100 | Plant response rating, Pigweed [4, 16]: 100 | Plant response rating, Ragweed [5, 13]: 90 | Ragweed plant response rating [5, 14]: 90 | Ragweed plant response rating [5, 15]: 80 | Plant response rating, Ragweed [5, 16]: 90 | Plant response rating, Ryegrass, Italian [6, 17]: 90 | Ryegrass, Italian plant response rating [6, 14]: 100 | Ryegrass, Italian plant response rating [6, 15]: 90 | Plant response rating, Ryegrass, Italian [6, 16]: 100 | Plant response rating, Wheat [7]: 40 | Wheat plant response rating [7]: 80 | Galium plant response rating [8, 18]: 90 | Plant response rating, Galium [8, 19]: 95 | Plant response rating, Galium [8, 20]: 95 | Plant response rating, Galium [8, 21]: 100 | Plant response rating, Galium [8, 22]: 90 | Plant response rating, Galium [8, 23]: 95 | Galium plant response rating [8, 24]: 100 | Galium plant response rating [8, 25]: 95 | Nutsedge, Yellow plant response rating [9, 18]: 20 | Plant response rating, Nutsedge, Yellow [9, 19]: 65 | Plant response rating, Nutsedge, Yellow [9, 20]: 60 | Plant response rating, Nutsedge, Yellow [9, 21]: 0 | Plant response rating, Nutsedge, Yellow [9, 22]: 20 | Plant response rating, Nutsedge, Yellow [9, 23]: 40 | Nutsedge, Yellow plant response rating [9, 24]: 60 | Nutsedge, Yellow plant response rating [9, 25]: 40 | Oilseed Rape plant response rating [10, 18]: 40 | Plant response rating, Oilseed Rape [10, 19]: 40 | Plant response rating, Oilseed Rape [10, 20]: 50 | Plant response rating, Oilseed Rape [10, 21]: 0 | Plant response rating, Oilseed Rape [10, 22]: 40 | Plant response rating, Oilseed Rape [10, 23]: 60 | Oilseed Rape plant response rating [10, 24]: 90 | Oilseed Rape plant response rating [10, 25]: 20 | Velvetleaf plant response rating [11, 18]: 20 | Plant response rating, Velvetleaf [11, 19]: 85 | Plant response rating, Velvetleaf [11, 20]: 90 | Plant response rating, Velvetleaf [11, 21]: 25 | Plant response rating, Velvetleaf [11, 22]: 80 | Plant response rating, Velvetleaf [11, 23]: 85 | Velvetleaf plant response rating [11, 24]: 90 | Velvetleaf plant response rating [11, 25]: 70

COc1ccc2ccccc2c1-c1c(O)c(C)nn(C)c1=O [Compound 40]
Plant response rating, Corn ([1]; 0 to 100 scale where 0 is no effect and 100 is complete control): 0 | Corn plant response rating [1]: 10 | Plant response rating, Foxtail, Giant [2, 17]: 60 | Foxtail, Giant plant response rating [2, 14]: 80 | Foxtail, Giant plant response rating [2, 15]: 40 | Plant response rating, Foxtail, Giant [2, 16]: 70 | Plant response rating, Kochia [3, 17]: 80 | Kochia plant response rating [3, 14]: 90 | Kochia plant response rating [3, 15]: 50 | Plant response rating, Kochia [3, 16]: 80 | Plant response rating, Pigweed [4, 17]: 80 | Pigweed plant response rating [4, 14]: 100 | Pigweed plant response rating [4, 15]: 90 | Plant response rating, Pigweed [4, 16]: 100 | Plant response rating, Ragweed [5, 17]: 70 | Ragweed plant response rating [5, 14]: 90 | Ragweed plant response rating [5, 15]: 30 | Plant response rating, Ragweed [5, 16]: 80 | Plant response rating, Ryegrass, Italian [6, 17]: 90 | Ryegrass, Italian plant response rating [6, 14]: 90 | Ryegrass, Italian plant response rating [6, 15]: 60 | Plant response rating, Ryegrass, Italian [6, 16]: 100 | Plant response rating, Wheat [7]: 0 | Wheat plant response rating [7]: 50 | Plant response rating, Galium [8, 26]: 30 | Galium plant response rating [8, 18]: 80 | Plant response rating, Galium [8, 19]: 90 | Galium plant response rating [8, 25]: 85 | Plant response rating, Nutsedge, Yellow [9, 26]: 0 | Nutsedge, Yellow plant response rating [9, 18]: 0 | Plant response rating, Nutsedge, Yellow [9, 19]: 20 | Nutsedge, Yellow plant response rating [9, 25]: 15 | Plant response rating, Oilseed Rape [10, 26]: 0 | Oilseed Rape plant response rating [10, 18]: 5 | Plant response rating, Oilseed Rape [10, 19]: 5 | Oilseed Rape plant response rating [10, 25]: 30 | Plant response rating, Velvetleaf [11, 26]: 5 | Velvetleaf plant response rating [11, 18]: 5 | Plant response rating, Velvetleaf [11, 19]: 20 | Velvetleaf plant response rating [11, 25]: 10
